The record followed here is patent publication US6586460B1, “Heteroarotinoids containing urea or thiourea linker” (The Board of Regents for Oklahoma State University, priority 2001, dated 2003).

One experiment concerns SW962. Nature of the experiment: Growth inhibition assay (SRB). It is filed as cell-based. The note with it: 10 μM, three-day treatment, Table I. The method, boiled down: (§1)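 Cells plated at 2000-4000/well, then treated next day with compound at final 1, 2, 3, 4, 5, 7 and 10 μM for 3 days. Density by TCA fixation and sulforhodamine B staining with OD read-out, in triplicate. Percent growth inhibition = (1 − treated OD/DMSO-control OD) × 100.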

For another experiment, the system named is CAOV-3. Nature of the experiment: Growth inhibition assay (SRB). Type of experiment: cell-based. The note with it: 10 μM, three-day treatment, Table I. The method, boiled down: as §1
A further experiment relates to SiHa. Nature of the experiment: Growth inhibition assay (SRB). Type of experiment: cell-based. The note with it: 10 μM, three-day treatment, Table I. The method, boiled down: as §1
Another experiment relates to HT-3. The experiment in a line: Growth inhibition assay (SRB). Type of experiment: cell-based. The note with it: 10 μM, three-day treatment, Table I. The method, boiled down:
as §1

The test system of a further experiment is SK-OV-3. Nature of the experiment: Growth inhibition assay (SRB). Type of experiment: cell-based. The following applies: 10 μM, three-day treatment, Table I. The method, boiled down:
as §1

Another experiment has as its system C-33A. Nature of the experiment: Growth inhibition assay (SRB). It is filed as cell-based. The note with it: 10 μM, three-day treatment, Table I. In short, it runs like this: as §1
The test system of another experiment is OVCAR-3. Nature of the experiment: Growth inhibition assay (SRB). Type of experiment: cell-based, human. The note with it: 10 μM, three-day treatment, Table I. In short, it runs like this:
as §1

The test system of experiment [1] is SW962 vulvar carcinoma cultures. Nature of the experiment: Apoptosis assay, Annexin-V-Flous/propidium iodide flow cytometry. It is filed as cell-based. An excerpt: Optimal chemotherapeutic agents will selectively kill tumor cells by inducing a natural form of cell death which is called “apoptosis”. Toxic agents kill both normal and tumor cells via a nonspecific process known as “necrosis”. To differentiate between apoptosis and necrosis in heteroarotinoid-treated cultures, a flow cytometric assay was employed. Treated cultures were stained with Annexin-V-Flous and propidium iodide, and the intensities of the stains are quantitated with Flow Cytometry. The Annexin-V-Flous binds to phosphatidyl serine on the exterior of apoptosing cells. This assay is specific for apoptosing cells because phosphatidyl serine is normally located on the inner membrane of the cells, a situation whereby the serine derivative cannot be bound by Annexin. However, during apoptosis, phosphatidyl serine is translocated to the outer membrane. The Flous moiety emits a signal that can be detected and quantitated by Flow Cytometry. In contrast, propidium iodide is taken up by necrotic cells that have lost membrane integrity. In this study, t-RA was used as a control for the non-apoptotic retinoids, and 4-HPR was used as a control for the apoptotic retinoids.

A further experiment relates to retinoic acid receptors. Nature of the experiment: CV-1 co-transfection assay. It is filed as cell-based.
Experiment [2] relates to RARE reporter in the SW962 vulvar carcinoma cell line. Nature of the experiment: RARE reporter transactivation through endogenous receptors. It is filed as cell-based. As for the experimental part:
Both heteroarotinoids 11 and 13 resemble 4-HPR in that all are potent inducers of apoptosis. Since 4-HPR acts through a receptor-independent mechanism, agent 11 was evaluated for ability to transactivate a RARE reporter through endogenous receptors in the SW962 vulvar carcinoma cell line. […] Nelson, S. Subramanian, G. M. Weerasekare, J. B. Gale, M. K. Patterson, Jr., B. Wang, W. Wang, S. Lu, T. C. Rowland, P. DiSivestro, C. Lindamood, D. L. Hill, and K. D. Berlin]. No induction of the retinoid receptors was observed although 9-cis-RA casued a 4 to 10 fold induction of RARE-driven transcription in the same experiment with the SW962 cell line.

Regarding `CC1(C)CC(C)(C)c2cc(NC(=S)Nc3ccc([N+](=O)[O-])cc3)ccc2S1` [heteroarotinoid 11], the “Percentage growth inhibition, SW962 (Vulva HPV− Mut p53)” value in the experiment with SW962 is reported as 98%. In the experiment on CAOV-3, the “Percentage growth inhibition, CAOV-3 (Ovarian HPV− Mut p53)” value came out at 80%. For the same molecule, the “Percentage growth inhibition, SiHa (Cervix HPV+ Wt p53)” value with SiHa was determined as 72%. The “Percentage growth inhibition, HT-3 (Cervix HPV− Mut p53)” value with HT-3 is recorded as 82%. Moreover, the “Percentage growth inhibition, SK-OV-3 (Ovarian HPV− Null p53)” value with SK-OV-3 is 100%. Further, the “Percentage growth inhibition, C-33A (Cervix HPV− Mut p53)” value with C-33A amounted to 87%. The “Percentage growth inhibition, OVCAR-3 (Ovarian HPV− Mut p53)” value with OVCAR-3 is 94%. Besides, the “Percentage of induction of apoptosis in SW962 vulvar carcinoma cultures” value in [1] (Days 0) stood at 3%; in [1] (Days 1) it was 6.11%; in experiment [1] (Days 2), 11.42%; in experiment [1] (Days 3), 39.06%; in [1] (Days 4), 48.79%; in experiment [1] (Days 7), 47.5%. In addition, in experiment [1] (Table IV), the “apoptosis in the SW962 vulvar cell, comparison in words” value was “superior to the clinically used agent 4-HPR”. Besides, in the experiment with retinoic acid receptors, the “transactivation of each of the retinoic acid receptors” value is recorded as “No transactivation”. Further, the “induction of RARE-driven transcription” value in [2] was “No induction”.

Regarding `CCOC(=O)c1ccc(NC(=O)Nc2ccc3c(c2)C(C)(C)CC(C)(C)S3)cc1` [heteroarotinoid 13], the “Percentage growth inhibition, SW962 (Vulva HPV− Mut p53)” value in the experiment with SW962 came to 96%. The “Percentage growth inhibition, CAOV-3 (Ovarian HPV− Mut p53)” value in the experiment with CAOV-3 was determined as 98%. For the same molecule, the “Percentage growth inhibition, SiHa (Cervix HPV+ Wt p53)” value in the experiment on SiHa is 66%. Also, the “Percentage growth inhibition, HT-3 (Cervix HPV− Mut p53)” value with HT-3 was found to be 85%. In addition, the “Percentage growth inhibition, SK-OV-3 (Ovarian HPV− Null p53)” value with SK-OV-3 stood at 94%. The “Percentage growth inhibition, C-33A (Cervix HPV− Mut p53)” value with C-33A came out at 76%. The “Percentage growth inhibition, OVCAR-3 (Ovarian HPV− Mut p53)” value with OVCAR-3 is 77%.
